Experimental data published in PMC5607265, “Design, synthesis and structure-activity relationship of 3,6-diaryl-7H-[1,2,4]triazolo[3,4-b][1,3,4]thiadiazines as novel tubulin inhibitors” (Scientific Reports, 2017).

Assays:
[1] = system: lung adenocarcinoma A549 cells; assay: MTT antiproliferative assay, A549; type: cell-based, human; conditions: Homo sapiens, A549; MTT assay, 24 h exposure, triplicate; read-out: IC50 A549
Description: (§1) The SGC-7901, A549 and HT-1080 cell lines were purchased from the American Type Culture Collection (ATCC, Manassas, VA, USA). […] Briefly, approximately 3 × 10^4 cells were seeded in a 96-well plate. After 24 h of incubation at 37 °C, cells were exposed to compounds of differing concentrations for 24 h. After treatment, cells were washed with 1X PBS followed by addition of 100 µL of 0.05% MTT reagent to each well, followed by incubation for 4 h at 37 °C. After incubation, the supernatant from each well was carefully removed and the formazan crystals were dissolved in 100 µL of DMSO. The colour density was measured spectrophotometrically at 490 nm using a microplate reader (SpectraMax Plus384, Molecular Devices Corp., USA). The data were calculated and plotted as percent viability compared to control.
as §1

[2] = system: fibrosarcoma HT-1080 cells; assay: MTT antiproliferative assay, HT-1080; type: cell-based, human; conditions: Homo sapiens, HT-1080; MTT assay, 24 h exposure, triplicate; read-out: IC50 HT-1080
Description: as §1, §1

[3] = system: gastric adenocarcinoma SGC-7901 cells; assay: MTT antiproliferative assay, SGC-7901; type: cell-based, human; conditions: Homo sapiens, SGC-7901; MTT assay, 24 h exposure, triplicate; read-out: IC50 SGC-7901
Description: as §1, §1

Row | melting point | IC50 [1] | IC50 [2] | IC50 [3] | SMILES
1 | 92 to 94 °C | 21.2 µM | 31.3 µM | 32.6 µM | COc1ccc(-c2nnc3n2N=C(c2ccc(F)cc2)CS3)c(OC)c1OC [Compound 4a, 3-(2,3,4-Trimethoxyphenyl)-6-(4-fluorophenyl)-7H-[1,2,4]triazolo[3,4-b][1,3,4]thiadiazine]
2 | 88 to 90 °C | 23.2 µM | 24.7 µM | 24.5 µM | COc1ccc(-c2nnc3n2N=C(c2ccc(Cl)cc2)CS3)c(OC)c1OC [Compound 4b, 3-(2,3,4-Trimethoxyphenyl)-6-(4-chlorophenyl)-7H-[1,2,4]triazolo[3,4-b][1,3,4]thiadiazine]
3 | 96 to 98 °C | 7.37 µM | 3.77 µM | 5.55 µM | COc1ccc(-c2nnc3n2N=C(c2ccc(Br)cc2)CS3)c(OC)c1OC [Compound 4c, 3-(2,3,4-Trimethoxyphenyl)-6-(4-bromophenyl)-7H-[1,2,4]triazolo[3,4-b][1,3,4]thiadiazines]
4 | 95 to 96 °C | 85.4 µM | 10.5 µM | 2.42 µM | COc1ccc(-c2nnc3n2N=C(c2ccc(C(F)(F)F)cc2)CS3)c(OC)c1OC [Compound 4e, 3-(2,3,4-Trimethoxyphenyl)-6-(4-(trifluoromethyl)phenyl)-7H-[1,2,4]triazolo[3,4-b][1,3,4]thiadiazine]
5 | 92 to 95 °C | 50.2 µM | 61.4 µM | 62.7 µM | COc1ccc(C2=Nn3c(nnc3-c3ccc(OC)c(OC)c3OC)SC2)cc1 [Compound 4f, 3-(2,3,4-Trimethoxyphenyl)-6-(4-methoxyphenyl)-7H-[1,2,4]triazolo[3,4-b][1,3,4]thiadiazine]
6 | 86 to 88 °C | 12.5 µM | 2.7 µM | 8.02 µM | COc1ccc(-c2nnc3n2N=C(c2ccc(SC)cc2)CS3)c(OC)c1OC [Compound 4g, 3-(2,3,4-Trimethoxyphenyl)-6-(4-methylthiophenyl)-7H-[1,2,4]triazolo[3,4-b][1,3,4]thiadiazine]
7 | 92 to 94 °C | 16.3 µM | 51.9 µM | 43.2 µM | COc1ccc(C2=Nn3c(nnc3-c3ccc(OC)c(OC)c3OC)SC2)cc1F [Compound 4h, 3-(2,3,4-Trimethoxyphenyl)-6-(3-fluoro-4-methoxyphenyl)-7H-[1,2,4]triazolo[3,4-b][1,3,4]thiadiazine]
8 | 134 to 136 °C | 16.5 µM | 15.9 µM | 13.2 µM | COc1ccc(C2=Nn3c(nnc3-c3ccc(OC)c(OC)c3OC)SC2)cc1[N+](=O)[O-] [Compound 4i, 3-(2,3,4-Trimethoxyphenyl)-6-(3-nitro-4-methoxyphenyl)-7H-[1,2,4]triazolo[3,4-b][1,3,4]thiadiazine]
9 | 85 to 86 °C | 8.9 µM | 28.3 µM | 28.9 µM | COc1ccc(C2=Nn3c(nnc3-c3ccc(OC)c(OC)c3OC)SC2)cc1OCc1ccccc1 [Compound 4k, 3-(2,3,4-Trimethoxyphenyl)-6-(3-benzyloxy-4-methoxyphenyl)-7H-[1,2,4]triazolo[3,4-b][1,3,4]thiadiazine]
10 | 95 to 97 °C | 78.1 µM | 81.3 µM | 73.2 µM | COc1ccc(-c2nnc3n2N=C(c2ccc(F)c(F)c2)CS3)c(OC)c1OC [Compound 4m, 3-(2,3,4-Trimethoxyphenyl)-6-(3,4-difluorophenyl)-7H-[1,2,4]triazolo[3,4-b][1,3,4]thiadiazine]
11 | 125 to 127 °C | 0.27 µM | 0.88 µM | 1.37 µM | COc1cc(-c2nnc3n2N=C(c2ccc(Cl)cc2)CS3)cc(OC)c1OC [Compound 5a, 3-(3,4,5-Trimethoxyphenyl)-6-(4-chlorophenyl)-7H-[1,2,4]triazolo[3,4-b][1,3,4]thiadiazine]
12 | 105 to 106 °C | 7.72 µM | 0.75 µM | 1.17 µM | COc1cc(-c2nnc3n2N=C(c2ccc(C(F)(F)F)cc2)CS3)cc(OC)c1OC [Compound 5c, 3-(3,4,5-Trimethoxyphenyl)-6-(4-(trifluoromethyl)phenyl)-7H-[1,2,4]triazolo[3,4-b][1,3,4]thiadiazine]
13 | 92 to 94 °C | 0.46 µM | 0.18 µM | 0.13 µM | COc1cc(-c2nnc3n2N=C(c2ccc(SC)cc2)CS3)cc(OC)c1OC [Compound 5d, 3-(3,4,5-Trimethoxyphenyl)-6-(4-methylthiophenyl)-7H-[1,2,4]triazolo[3,4-b][1,3,4]thiadiazine]
14 | 115 to 118 °C | 3.21 µM | 1.31 µM | 4.28 µM | COc1ccc(C2=Nn3c(nnc3-c3cc(OC)c(OC)c(OC)c3)SC2)cc1F [Compound 5e, 3-(3,4,5-Trimethoxyphenyl)-6-(3-fluoro-4-methoxyphenyl)-7H-[1,2,4]triazolo[3,4-b][1,3,4]thiadiazine]
15 | 212 to 213 °C | 8.88 µM | 5.76 µM | 11.3 µM | COc1ccc(C2=Nn3c(nnc3-c3cc(OC)c(OC)c(OC)c3)SC2)cc1[N+](=O)[O-] [Compound 5f, 3-(3,4,5-Trimethoxyphenyl)-6-(3-nitro-4-methoxyphenyl)-7H-[1,2,4]triazolo[3,4-b][1,3,4]thiadiazine]
16 | 112 to 115 °C | 1.08 µM | 0.18 µM | 1.25 µM | COc1ccc(C2=Nn3c(nnc3-c3cc(OC)c(OC)c(OC)c3)SC2)cc1N [Compound 5g, 3-(3,4,5-Trimethoxyphenyl)-6-(3-amino-4-methoxyphenyl)-7H-[1,2,4]triazolo[3,4-b][1,3,4]thiadiazine]
17 | 93 to 94 °C | 2.94 µM | 1.57 µM | 1.66 µM | COc1ccc(C2=Nn3c(nnc3-c3cc(OC)c(OC)c(OC)c3)SC2)cc1OCc1ccccc1 [Compound 5h, 3-(3,4,5-Trimethoxyphenyl)-6-(3-benzyloxy-4-methoxyphenyl)-7H-[1,2,4]triazolo[3,4-b][1,3,4]thiadiazine]
18 | 93 to 95 °C | 0.19 µM | 0.13 µM | 0.065 µM | COc1ccc(C2=Nn3c(nnc3-c3ccc4c(c3)OCO4)SC2)cc1F [Compound 6a, 3-(3,4-Methylenedioxyphenyl)-6-(3-fluoro-4-methoxyphenyl)-7H-[1,2,4]triazolo[3,4-b][1,3,4]thiadiazine]
19 | 90 to 92 °C | 15.7 µM | 0.08 µM | 10.5 µM | COc1ccc(C2=Nn3c(nnc3-c3ccc4c(c3)OCO4)SC2)cc1[N+](=O)[O-] [Compound 6b, 3-(3,4-Methylenedioxyphenyl)-6-(3-nitro-4-methoxyphenyl)-7H-[1,2,4]triazolo[3,4-b][1,3,4]thiadiazine]
20 | 86 to 88 °C | 16.3 µM | 7.32 µM | 8.49 µM | COc1ccc(C2=Nn3c(nnc3-c3ccc4c(c3)OCO4)SC2)cc1OCc1ccccc1 [Compound 6d, 3-(3,4-Methylenedioxyphenyl)-6-(3-benzyloxy-4-methoxyphenyl)-7H-[1,2,4]triazolo[3,4-b][1,3,4]thiadiazine]
